Measured values taken from patent US8399480B2, “Hydroxymethyl pyrrolidines as beta 3 adrenergic receptor agonists” (Merck Sharp & Dohme Corp., priority 2008, dated 2013).
Read-outs that look alike come from different tables or passages of the source.

Target: T1, human β3 adrenergic receptor (Homo sapiens, UniProt P13945)
T1 construct: expressed in transfected cells; host or cells: Chinese hamster ovary (CHO) cells, stably transfected
Experiment: Functional assay: cAMP production (LANCE TR-FRET) in CHO cells stably transfected with cloned β3 adrenergic receptor
Type: cell-based
Method in brief: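 Agonist-stimulated cAMP in CHO cells stably expressing human β3 receptor, 6,000 cells per well in HBSS/HEPES/0.1% BSA with 0.6 mM IBMX, 30 min at room temperature. LANCE TR-FRET readout converted to cAMP via standard curve; maximal stimulation defined with isoproterenol.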

[1] = Table 12, read-out: Human β3 Functional
[2] = human β3 functional activity, shown as ranges, Table 13, read-out: Human β3 Functional
[3] = human β3 functional activity, shown as ranges, Table 14, read-out: Human β3 Functional
[4] = Table 4, human β3 functional activity, read-out: Human β Binding

T1 sequence (P13945 whole entry): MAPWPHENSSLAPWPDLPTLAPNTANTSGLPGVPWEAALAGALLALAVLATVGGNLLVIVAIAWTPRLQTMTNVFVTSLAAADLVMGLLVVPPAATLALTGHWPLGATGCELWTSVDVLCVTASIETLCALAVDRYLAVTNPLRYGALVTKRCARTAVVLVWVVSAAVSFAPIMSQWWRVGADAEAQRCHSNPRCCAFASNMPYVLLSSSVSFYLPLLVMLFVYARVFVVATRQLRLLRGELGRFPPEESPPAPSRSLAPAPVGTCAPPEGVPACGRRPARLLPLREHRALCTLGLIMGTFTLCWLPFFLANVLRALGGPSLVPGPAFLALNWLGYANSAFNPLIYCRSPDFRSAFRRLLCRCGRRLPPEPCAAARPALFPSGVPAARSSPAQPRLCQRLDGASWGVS

With Nc1nc2c(s1)CCC2C(=O)Nc1ccc(CC2CCC(C(O)c3ccc(F)c(F)c3)N2)cc1 (single isomer, unassigned) [Example 291] the EC50 [1] was 11 to 100 nM.
For Nc1nc2c(s1)CCC2C(=O)Nc1ccc(CC2CCC(C(O)c3ccc(F)c(F)c3)N2)cc1 (single isomer, unassigned) [Example 292], the EC50 [1] was under 1 nM.
Work on Nc1nc2c(s1)CCC2C(=O)Nc1ccc(CC2CCC(C(O)c3cccc(Cl)c3)N2)cc1 (single isomer, unassigned) [Example 294] yielded an EC50 [2] of 11 to 100 nM.
In the case of Nc1nc2c(s1)CCC2C(=O)Nc1ccc(CC2CCC(C(O)c3cccc(Cl)c3)N2)cc1 (single isomer, unassigned) [Example 295], the EC50 [2] is reported as under 1 nM.
For O=C(Nc1ccc(CC2CCC(C(O)c3cccc(Cl)c3)N2)cc1)C1CCc2sc(Br)nc21 (single isomer, unassigned) [Example 298], the EC50 [2] was under 1 nM.
Work on O=C(Nc1ccc(CC2CCC(C(O)c3cccc(Cl)c3)N2)cc1)C1CCc2sc(Br)nc21 (single isomer, unassigned) [Example 299] yielded an EC50 [2] of 11 to 100 nM.
For O=C(Nc1ccc(CC2CCC(C(O)c3cccc(Cl)c3)N2)cc1)C1CCc2sc(F)nc21 (single isomer, unassigned) [Example 300], the EC50 [2] was 1 to 10 nM.
In the case of O=C(Nc1ccc(CC2CCC(C(O)c3cccc(Cl)c3)N2)cc1)C1CCc2sc(F)nc21 (single isomer, unassigned) [Example 301], the EC50 [2] is reported as 11 to 100 nM.
CC(C(=O)Nc1ccc(CC2CCC(C(O)c3cccc(Cl)c3)N2)cc1)c1cscn1 (single isomer, unassigned) [Example 302] gave an EC50 [2] of 1 to 10 nM.
With CC(C(=O)Nc1ccc(CC2CCC(C(O)c3cccc(Cl)c3)N2)cc1)c1cscn1 (single isomer, unassigned) [Example 303] the EC50 [2] was 11 to 100 nM.
Nc1nc2c(s1)CCC2C(=O)Nc1ccc(CC2CCC(C(O)c3cccc(F)c3)N2)cc1 (single isomer, unassigned) [Example 306] showed an EC50 [3] of under 1 nM.
For Nc1nc2c(s1)CCC2C(=O)Nc1ccc(CC2CCC(C(O)c3cccc(Cl)c3)N2)cc1 (single isomer, unassigned) [Example 310], the EC50 [3] was under 1 nM.
Nc1nc2c(s1)CCC2C(=O)Nc1ccc(CC2CCC(C(O)c3cccc(Cl)c3)N2)cc1 (single isomer, unassigned) [Example 311] was tested, and the EC50 [3] was 1 to 10 nM.
Nc1nc(CC(=O)Nc2ccc(C[C@H]3CC[C@H]([C@H](O)c4ccccc4)N3)cc2)cs1 [Example 3, 2-(2-Amino-1,3-thiazol-4-yl)-N-[4-({(2R,5R)-[(R)hydroxy(phenyl)methyl]pyrrolidinyl}methyl)phenyl]acetamide] gave an EC50 (given as a range, cAMP, CHO cells, read-out: human β3 functional activity) of 11 to 100 nM.
O=C(Cn1nc2ccccc2n1)Nc1ccc(C[C@@H]2CC[C@H]([C@H](O)c3ccccc3)N2)cc1 [Example 5] gave an EC50 [4] of 1 to 10 nM.
With O=C(Cn1ncc2ccccc21)Nc1ccc(C[C@@H]2CC[C@H]([C@H](O)c3ccccc3)N2)cc1 [Example 6] the EC50 [4] was 1 to 10 nM.
O=C(Nc1ccc(C[C@@H]2CC[C@H]([C@H](O)c3ccccc3)N2)cc1)c1ccccc1N1CCCC1 [Example 7] showed an EC50 [4] of 101 to 1000 nM.
For Cc1csc(CC(=O)Nc2ccc(C[C@@H]3CC[C@H]([C@H](O)c4ccccc4)N3)cc2)n1 [Example 8], the EC50 [4] was 11 to 100 nM.
Work on Cc1nc(C)c(CC(=O)Nc2ccc(C[C@@H]3CC[C@H]([C@H](O)c4ccccc4)N3)cc2)s1 [Example 9] yielded an EC50 [4] of 101 to 1000 nM.
For Cc1nc(C)c(CC(=O)Nc2ccc(C[C@@H]3CC[C@H]([C@H](O)c4ccccc4)N3)cc2)s1 [Example 10], the EC50 [4] was 1 to 10 nM.
O=C(Nc1ccc(C[C@@H]2CC[C@H]([C@H](O)c3ccccc3)N2)cc1)c1ccccc1-n1nccn1 [Example 11] gave an EC50 [4] of 11 to 100 nM.
In the case of O=C(Nc1ccc(C[C@@H]2CC[C@H]([C@H](O)c3ccccc3)N2)cc1)c1ccccc1-c1ncc[nH]1 [Example 12], the EC50 [4] is reported as 11 to 100 nM.
For O=C(Nc1ccc(C[C@@H]2CC[C@H]([C@H](O)c3ccccc3)N2)cc1)c1ccccc1-c1nnn[nH]1 [Example 13], the EC50 [4] was 11 to 100 nM.
For O=C(Nc1ccc(C[C@@H]2CC[C@H]([C@H](O)c3ccccc3)N2)cc1)c1ccccc1-c1nc2ccccc2s1 [Example 14], the EC50 [4] was 101 to 1000 nM.
Cc1nn(CC(=O)Nc2ccc(C[C@@H]3CC[C@H]([C@H](O)c4ccccc4)N3)cc2)c(=O)c2ccccc12 [Example 15] was tested, and the EC50 [4] was 1 to 10 nM.
O=C(Cn1cnc2ccccc2c1=O)Nc1ccc(C[C@@H]2CC[C@H]([C@H](O)c3ccccc3)N2)cc1 [Example 16] showed an EC50 [4] of 1 to 10 nM.
Compound O=C(Cn1c(=O)ncc2ccccc21)Nc1ccc(C[C@@H]2CC[C@H]([C@H](O)c3ccccc3)N2)cc1 [Example 17] has an EC50 [4] of 1 to 10 nM.
Compound O=C(Cn1nc(Cc2ccccc2)c2ccccc2c1=O)Nc1ccc(C[C@@H]2CC[C@H]([C@H](O)c3ccccc3)N2)cc1 [Example 18] has an EC50 [4] of 1 to 10 nM.
O=C(Cn1ncccc1=O)Nc1ccc(C[C@@H]2CC[C@H]([C@H](O)c3ccccc3)N2)cc1 [Example 20] showed an EC50 [4] of 1 to 10 nM.
For Cc1nnc(CC(=O)Nc2ccc(C[C@@H]3CC[C@H]([C@H](O)c4ccccc4)N3)cc2)[nH]1 [Example 21], the EC50 [4] was 11 to 100 nM.
Work on O=C(Cc1nnc(-c2ccccc2)[nH]1)Nc1ccc(C[C@@H]2CC[C@H]([C@H](O)c3ccccc3)N2)cc1 [Example 22] yielded an EC50 [4] of under 1 nM.
O=C(Cc1nnc(-c2ccc(Cl)cc2)[nH]1)Nc1ccc(C[C@@H]2CC[C@H]([C@H](O)c3ccccc3)N2)cc1 [Example 23] was tested, and the EC50 [4] was 11 to 100 nM.
In the case of O=C(Cc1nnc(-c2cscn2)[nH]1)Nc1ccc(C[C@@H]2CC[C@H]([C@H](O)c3ccccc3)N2)cc1 [Example 24], the EC50 [4] is reported as 1 to 10 nM.
O=C(Cc1nnc(-c2ccncc2)[nH]1)Nc1ccc(C[C@@H]2CC[C@H]([C@H](O)c3ccccc3)N2)cc1 [Example 25] gave an EC50 [4] of 11 to 100 nM.
In the case of O=C(Cc1nnc(-c2cc(Cl)cc(Cl)c2)[nH]1)Nc1ccc(C[C@@H]2CC[C@H]([C@H](O)c3ccccc3)N2)cc1 [Example 26], the EC50 [4] is reported as 101 to 1000 nM.
O=C(Cc1nnc(-c2ccn[nH]2)[nH]1)Nc1ccc(C[C@@H]2CC[C@H]([C@H](O)c3ccccc3)N2)cc1 [Example 27] was tested, and the EC50 [4] was 1 to 10 nM.
Work on Cn1nccc1-c1nnc(CC(=O)Nc2ccc(C[C@@H]3CC[C@H]([C@H](O)c4ccccc4)N3)cc2)[nH]1 [Example 28] yielded an EC50 [4] of 11 to 100 nM.
For O=C(Cn1nnnc1-c1ccc(F)cc1)Nc1ccc(C[C@@H]2CC[C@H]([C@H](O)c3ccccc3)N2)cc1 [Example 29], the EC50 [4] was 11 to 100 nM.
O=C(Nc1ccc(C[C@@H]2CC[C@H]([C@H](O)c3ccccc3)N2)cc1)c1ccccc1CCc1ccccc1 [Example 30] was tested, and the EC50 [4] was 101 to 1000 nM.
For O=C(Nc1ccc(C[C@@H]2CC[C@H]([C@H](O)c3ccccc3)N2)cc1)c1ccccc1COc1ccccc1 [Example 31], the EC50 [4] was 101 to 1000 nM.
O=C(Nc1ccc(C[C@@H]2CC[C@H]([C@H](O)c3ccccc3)N2)cc1)c1ccccc1CCn1cccc1 [Example 32] gave an EC50 [4] of 11 to 100 nM.
O=C(Cc1nnc(Cc2ccccc2)[nH]1)Nc1ccc(C[C@@H]2CC[C@H]([C@H](O)c3ccccc3)N2)cc1 [Example 33] showed an EC50 [4] of 11 to 100 nM.
O=C(Nc1ccc(C[C@@H]2CC[C@H]([C@H](O)c3ccccc3)N2)cc1)C1CCCN1c1cc(Cl)cc(Cl)c1 (stereo partly shown) [Example 35] gave an EC50 [4] of 11 to 100 nM.
With COc1cccc(N2CCCC2C(=O)Nc2ccc(C[C@@H]3CC[C@H]([C@H](O)c4ccccc4)N3)cc2)c1 (stereo partly shown) [Example 36] the EC50 [4] was 1 to 10 nM.
Work on O=C(Nc1ccc(C[C@@H]2CC[C@H]([C@H](O)c3ccccc3)N2)cc1)C1CCCN1c1ccc(Cl)cc1 (stereo partly shown) [Example 37] yielded an EC50 [4] of 101 to 1000 nM.
In the case of O=C(Nc1ccc(C[C@@H]2CC[C@H]([C@H](O)c3ccccc3)N2)cc1)C1CCCN1c1cccc(Br)c1 (stereo partly shown) [Example 38], the EC50 [4] is reported as 1 to 10 nM.
